Consider three molecules from patent publication US20060034780A1, “Dental compositions and methods” (The Boots Company, priority 2002, published 2006).

A short description of this test: Whitening of extracted teeth, CIE whiteness index by image analysis. As for the experimental part:
Extracted caries-free teeth collected from dental hospitals were briefly brushed to remove any skin tissue attached. The teeth were then sterilized by autoclaving at 121° C. for 25 mins. All teeth were stored in an airtight plastic container containing a solution of Phosphate Buffered Saline (PBS) with a few crystals of thymol as an antibacterial agent until required for use. Twenty four hours before the study, each tooth was glued onto a numbered glass microscope slide. A pellicle was formed on the teeth by soaking in sterilised artificial saliva with the composition set out in Table 1.
After the 24 hr period of pellicle formation, the teeth were then brushed with an Oral B Plaque remover electric toothbrush for 2 mins, with a standard fluoride toothpaste, the composition of which is set out in Table 2:
Excess toothpaste was removed by briefly rinsing each tooth with deionised water. The teeth were returned to a fresh aliquot of artificial saliva and then measured. The measured whiteness index (determined by image analysis as described below) was taken as the baseline against which subsequent measurements were compared.
[…] Teeth were returned to a fresh aliquot of artificial saliva and a Post-Bleach measurement taken.
FWA was applied to the teeth by immersion in a 500 ppm FWA solution (50 mg FWA in 100 ml deionised water stirred for 30 minutes) for 1 hr. The teeth were returned to a fresh aliquot of artificial saliva and a post-FWA measurement taken.
Each tooth was imaged using a Kodak DCS 410 camera, which was mounted 10 cm above and perpendicular to the specimen, using aperture F11 and a shutter speed of 1/10 second. The standardised lighting source comprised two UV tubes and two 6500K ‘daylight’ tubes. Each image was transferred to Adobe PhotoShop software. For each image, an 8 mm^2 area was analysed and an average Adobe L,a,b reading obtained using the software. All L,a,b values were converted to CIE L*,a*,b* and then to the CIE whiteness index W, using the equation: W=Y+800(xn−x)+1700(yn−y) where Y is the Y-tristimulus value of the specimen, x and y, and xn and yn are the chromaticity coordinates for the specimen and for the perfect diffuser for the CIE 1931 2° Standard Observer, respectively. Results

Turning to `O=S(=O)(O)c1ccccc1C=Cc1ccc(-c2ccc(C=Cc3ccccc3S(=O)(=O)O)cc2)cc1` [FWA, 4,4′-bis(2-sulfostyryl)biphenyl], the “change in whiteness index (in words) compared with treatment with H2O2 alone” value (FWA treatment after 15% H2O2 bleaching) is “further increase in whiteness”. In addition, the “average percentage increase in whiteness index” value was 41% (combined treatment using chlorine dioxide (sodium chlorite bleach) and FWA (Tinopal CBS-X), vs baseline); 24% (combined treatment: 15% H2O2 1 hr, then 500 ppm FWA solution 1 hr, vs baseline, six groups of three teeth).

sodium chlorite: where the note is “bleach alone: sodium chlorite (generating chlorine dioxide in use) in place of H2O2, vs baseline”, the “average percentage increase in whiteness index” value was found to be 8%.

Consider `OO` [Example H2O2, hydrogen peroxide], for which, under “H2O2 alone: immersion in 15% hydrogen peroxide solution for 1 hr, vs baseline, six groups of three teeth”, the “average percentage increase in whiteness index” value is on record as 17%. Besides, the “change in whiteness index (in words)” value (treatment with 15% H2O2, each group of teeth, vs baseline) was “increase in whiteness index”.
